Consider three molecules from patent US20050137166A1, “Use of cooling agents to relieve mild ocular irritation and enhance comfort” (Alcon, Inc., priority 2003, published 2005).

Data set [1] deals with eyes of human patients. Put plainly: Cooling sensation of compositions topically applied to the eyes of human patients. The note with it: for ability to produce a cooling sensation: human patients. It counts as in vivo. Here is the method: (§1) Compositions containing the cooling agents WS-3 and WS-23 in the vehicle described in Example 1 were prepared. The compositions were evaluated relative to the ability to produce a cooling sensation when topically applied to the eyes of human patients. The compositions were also evaluated with respect to the creation of ocular discomfort.

Data set [2] relates to eyes of human patients. Put plainly: Creation of ocular discomfort after topical application to the eyes of human patients. The format is in vivo. On the procedure:
as §1

A further data set has as its system mouth. The conditions noted are these: versus menthol; cited from earlier work.
The test system of a further data set is skin. The conditions noted are these: versus menthol; cited from earlier work.
Where [3] appears, read: WS-3 at 2 ppm to 5 ppm in the vehicle of Example 1, topical ocular.
Where [4] appears, read: ophthalmic composition, ocular cooling.
The mark [5] stands for this setting: WS-23 at 10 ppm to 20 ppm in the vehicle of Example 1, topical ocular.

For the molecule `CCNC(=O)C1CC(C)CCC1C(C)C` (centres unmarked) [WS-3, Cyclohexanecarboxamide, N-ethyl-5-methyl-2-(1-methylethyl)], in the data set with eyes of human patients [1] (setting [3]), the “ability to produce a cooling sensation” value was “refreshing”. Further, the optimal concentration in the data set on eyes of human patients [1] (setting [4]) is on record as 1 to 5 PPM. Also, the “ocular discomfort / tolerability” value with eyes of human patients [2] (setting [3]) is “comfortable and well tolerated”.

For `CC1=C(N2CCCC2)C(=O)OC1` [4-methyl-3-(1-pyrrolididinyl)-2[5H]-furanone], in the data set with mouth, the “cooling power relative to menthol, in the mouth” value is on record as “thirty-five”. The “cooling power relative to menthol, on the skin” value in the data set with skin is reported as “over 500 times”.

As for `CNC(=O)C(C)(C(C)C)C(C)C` [WS-23, N,2,3-Trimethyl-2-isopropylbutamide], the “ability to produce a cooling sensation” value in the data set on eyes of human patients [1] (setting [5]) is “produced a cooling effect”. Further, in the data set with eyes of human patients [1] (setting [4]), the “concentration at which most effective” value is 10 to 20 ppm. Moreover, the ocular discomfort result in the data set with eyes of human patients [2] (setting [5]) was “comfortable”.
